Measurements reported in the NIST ThermoML archive (doi:10.1016/j.jct.2010.06.009).

Assay: activity coefficient (dimensionless); of the first substance listed, at infinite dilution; xn = mol fraction of the nth substance listed
Conditions: 101 kPa, Liquid, Chromatography, x1 = 0

C=CCCCC [hex-1-ene] + CCCC[n+]1ccccc1.O=S(=O)([N-]S(=O)(=O)C(F)(F)F)C(F)(F)F
activity coefficient (302.3 K): 8.87
activity coefficient (312.9 K): 7.45
activity coefficient (323 K): 6.38
activity coefficient (332.8 K): 5.29
activity coefficient (343 K): 4.33
activity coefficient (352.8 K): 3.71

C=CCCCC [hex-1-ene] + CC[n+]1ccccc1.O=S(=O)([N-]S(=O)(=O)C(F)(F)F)C(F)(F)F
activity coefficient (302.6 K): 11.5
activity coefficient (313.1 K): 9.42
activity coefficient (322.9 K): 7.86
activity coefficient (332.8 K): 6.54
activity coefficient (342.9 K): 5.34
activity coefficient (353 K): 4.4

CCCCCC [hexane] + CCCCC[n+]1ccccc1.O=S(=O)([N-]S(=O)(=O)C(F)(F)F)C(F)(F)F
activity coefficient (303.3 K): 9.78
activity coefficient (312.7 K): 8.36
activity coefficient (323.4 K): 7
activity coefficient (333.3 K): 5.98
activity coefficient (343.3 K): 5.01
activity coefficient (353.3 K): 4.25

CCCCCC [hexane] + CCCC[n+]1ccccc1.O=S(=O)([N-]S(=O)(=O)C(F)(F)F)C(F)(F)F
activity coefficient (302.8 K): 11.9
activity coefficient (312.4 K): 10.4
activity coefficient (323.2 K): 8.58
activity coefficient (332.8 K): 7.59
activity coefficient (343.3 K): 5.85
activity coefficient (353.4 K): 4.75

CCCCCC [hexane] + CC[n+]1ccccc1.O=S(=O)([N-]S(=O)(=O)C(F)(F)F)C(F)(F)F
activity coefficient (302.8 K): 13.8
activity coefficient (313.3 K): 10.8
activity coefficient (323.1 K): 8.59
activity coefficient (333 K): 6.86
activity coefficient (342.9 K): 5.46
activity coefficient (353 K): 4.38

CO [methanol] + CCCCC[n+]1ccccc1.O=S(=O)([N-]S(=O)(=O)C(F)(F)F)C(F)(F)F
activity coefficient (302.8 K): 1.62
activity coefficient (313.5 K): 1.46
activity coefficient (323.4 K): 1.31
activity coefficient (333.3 K): 1.18
activity coefficient (343.2 K): 1.06
activity coefficient (353.4 K): 0.94

CO [methanol] + CCCC[n+]1ccccc1.O=S(=O)([N-]S(=O)(=O)C(F)(F)F)C(F)(F)F
activity coefficient (302.7 K): 2
activity coefficient (313.4 K): 1.73
activity coefficient (323.1 K): 1.56
activity coefficient (333.1 K): 1.39
activity coefficient (343.1 K): 1.25
activity coefficient (353.3 K): 1.12

CO [methanol] + CC[n+]1ccccc1.O=S(=O)([N-]S(=O)(=O)C(F)(F)F)C(F)(F)F
activity coefficient (302.5 K): 1.86
activity coefficient (313.1 K): 1.69
activity coefficient (323 K): 1.53
activity coefficient (332.9 K): 1.38
activity coefficient (342.9 K): 1.26
activity coefficient (353 K): 1.13

CC1CCCCC1 [methylcyclohexane] + CCCCC[n+]1ccccc1.O=S(=O)([N-]S(=O)(=O)C(F)(F)F)C(F)(F)F
activity coefficient (303.1 K): 10.2
activity coefficient (312.7 K): 9.39
activity coefficient (323.4 K): 8.48
activity coefficient (333.3 K): 7.64
activity coefficient (343.3 K): 6.84
activity coefficient (353.3 K): 6.08

CC1CCCCC1 [methylcyclohexane] + CCCC[n+]1ccccc1.O=S(=O)([N-]S(=O)(=O)C(F)(F)F)C(F)(F)F
activity coefficient (302.8 K): 14.1
activity coefficient (312.4 K): 12.7
activity coefficient (323.2 K): 11.6
activity coefficient (333.1 K): 10.1
activity coefficient (343.3 K): 8.44
activity coefficient (353.4 K): 7.2

CC1CCCCC1 [methylcyclohexane] + CC[n+]1ccccc1.O=S(=O)([N-]S(=O)(=O)C(F)(F)F)C(F)(F)F
activity coefficient (302.8 K): 17.8
activity coefficient (313.3 K): 15
activity coefficient (323.1 K): 12.8
activity coefficient (333 K): 10.8
activity coefficient (342.9 K): 9.01
activity coefficient (353 K): 7.49

CCCCCCCCC [nonane] + CCCCC[n+]1ccccc1.O=S(=O)([N-]S(=O)(=O)C(F)(F)F)C(F)(F)F
activity coefficient (303.2 K): 36
activity coefficient (312.7 K): 33.3
activity coefficient (323.4 K): 30.2
activity coefficient (333.3 K): 27.3
activity coefficient (343.3 K): 24.2
activity coefficient (353.3 K): 21.4

CCCCCCCCC [nonane] + CCCC[n+]1ccccc1.O=S(=O)([N-]S(=O)(=O)C(F)(F)F)C(F)(F)F
activity coefficient (303.1 K): 52.3
activity coefficient (312.6 K): 50
activity coefficient (323.3 K): 45.6
activity coefficient (333.3 K): 38.6
activity coefficient (343.3 K): 33.3
activity coefficient (353.4 K): 28.1

CCCCCCCCC [nonane] + CC[n+]1ccccc1.O=S(=O)([N-]S(=O)(=O)C(F)(F)F)C(F)(F)F
activity coefficient (302.8 K): 86.1
activity coefficient (313.3 K): 74.3
activity coefficient (323.1 K): 63.4
activity coefficient (333 K): 51.7
activity coefficient (342.9 K): 42.2
activity coefficient (353 K): 33.8

C=CCCCCCC [oct-1-ene] + CCCCC[n+]1ccccc1.O=S(=O)([N-]S(=O)(=O)C(F)(F)F)C(F)(F)F
activity coefficient (303 K): 14.2
activity coefficient (312.6 K): 13.2
activity coefficient (322.6 K): 12.2
activity coefficient (333.4 K): 11
activity coefficient (343.4 K): 9.95
activity coefficient (353.4 K): 9.08

C=CCCCCCC [oct-1-ene] + CCCC[n+]1ccccc1.O=S(=O)([N-]S(=O)(=O)C(F)(F)F)C(F)(F)F
activity coefficient (302.5 K): 22.3
activity coefficient (313 K): 19.7
activity coefficient (323.2 K): 18.4
activity coefficient (332.8 K): 15.7
activity coefficient (343 K): 13.6
activity coefficient (352.9 K): 11.9

C=CCCCCCC [oct-1-ene] + CC[n+]1ccccc1.O=S(=O)([N-]S(=O)(=O)C(F)(F)F)C(F)(F)F
activity coefficient (302.6 K): 36.6
activity coefficient (313.2 K): 31.5
activity coefficient (323.2 K): 27.2
activity coefficient (332.8 K): 23.7
activity coefficient (342.9 K): 19.8
activity coefficient (353 K): 16.7

CCCCCCCC [octane] + CCCCC[n+]1ccccc1.O=S(=O)([N-]S(=O)(=O)C(F)(F)F)C(F)(F)F
activity coefficient (303.2 K): 25
activity coefficient (312.7 K): 22.8
activity coefficient (323.4 K): 20.3
activity coefficient (333.3 K): 18
activity coefficient (343.3 K): 15.7
activity coefficient (353.3 K): 13.7

CCCCCCCC [octane] + CCCC[n+]1ccccc1.O=S(=O)([N-]S(=O)(=O)C(F)(F)F)C(F)(F)F
activity coefficient (302.7 K): 35.4
activity coefficient (312.5 K): 32.2
activity coefficient (323.2 K): 29
activity coefficient (333.3 K): 23.9
activity coefficient (343.3 K): 20.4
activity coefficient (353.4 K): 16.8

CCCCCCCC [octane] + CC[n+]1ccccc1.O=S(=O)([N-]S(=O)(=O)C(F)(F)F)C(F)(F)F
activity coefficient (302.8 K): 52.9
activity coefficient (313.3 K): 43.5
activity coefficient (323.1 K): 36
activity coefficient (333 K): 29.1
activity coefficient (342.9 K): 23.4
activity coefficient (353 K): 18.5

CCCCC [pentane] + CCCCC[n+]1ccccc1.O=S(=O)([N-]S(=O)(=O)C(F)(F)F)C(F)(F)F
activity coefficient (303.3 K): 5.03
activity coefficient (312.7 K): 4.17
activity coefficient (323.4 K): 3.42
activity coefficient (333.3 K): 2.89
activity coefficient (343.3 K): 2.41
activity coefficient (353.3 K): 2.07

CCCCC [pentane] + CCCC[n+]1ccccc1.O=S(=O)([N-]S(=O)(=O)C(F)(F)F)C(F)(F)F
activity coefficient (302.8 K): 5.66
activity coefficient (312.4 K): 4.83
activity coefficient (323.2 K): 3.92
activity coefficient (333 K): 3.44
activity coefficient (343.4 K): 2.66
activity coefficient (353.4 K): 2.24

CCCCC [pentane] + CC[n+]1ccccc1.O=S(=O)([N-]S(=O)(=O)C(F)(F)F)C(F)(F)F
activity coefficient (302.7 K): 5.79
activity coefficient (313.3 K): 4.5
activity coefficient (323 K): 3.59
activity coefficient (333 K): 2.92
activity coefficient (342.9 K): 2.36
activity coefficient (352.9 K): 1.95

CCCO [propan-1-ol] + CCCCC[n+]1ccccc1.O=S(=O)([N-]S(=O)(=O)C(F)(F)F)C(F)(F)F
activity coefficient (302.8 K): 2.53
activity coefficient (313.6 K): 2.23
activity coefficient (323.4 K): 2.02
activity coefficient (333.3 K): 1.84
activity coefficient (343.3 K): 1.65
activity coefficient (353.3 K): 1.49

CCCO [propan-1-ol] + CCCC[n+]1ccccc1.O=S(=O)([N-]S(=O)(=O)C(F)(F)F)C(F)(F)F
activity coefficient (303.4 K): 3.31
activity coefficient (313.3 K): 2.82
activity coefficient (323.2 K): 2.52
activity coefficient (333.1 K): 2.25
activity coefficient (343.1 K): 2.03
activity coefficient (353 K): 1.84

CCCO [propan-1-ol] + CC[n+]1ccccc1.O=S(=O)([N-]S(=O)(=O)C(F)(F)F)C(F)(F)F
activity coefficient (302.5 K): 3.56
activity coefficient (313.1 K): 3.18
activity coefficient (323 K): 2.85
activity coefficient (332.9 K): 2.57
activity coefficient (342.9 K): 2.29
activity coefficient (353 K): 2.06

Cc1ccccc1 [toluene] + CCCCC[n+]1ccccc1.O=S(=O)([N-]S(=O)(=O)C(F)(F)F)C(F)(F)F
activity coefficient (303.1 K): 1.28
activity coefficient (312.8 K): 1.3
activity coefficient (323.3 K): 1.33
activity coefficient (333.3 K): 1.34
activity coefficient (343.3 K): 1.36
activity coefficient (353.5 K): 1.36

Cc1ccccc1 [toluene] + CCCC[n+]1ccccc1.O=S(=O)([N-]S(=O)(=O)C(F)(F)F)C(F)(F)F
activity coefficient (302.8 K): 1.8
activity coefficient (312.6 K): 1.82
activity coefficient (323.3 K): 1.83
activity coefficient (333.2 K): 1.83
activity coefficient (343.2 K): 1.85
activity coefficient (353.3 K): 1.86

Cc1ccccc1 [toluene] + CC[n+]1ccccc1.O=S(=O)([N-]S(=O)(=O)C(F)(F)F)C(F)(F)F
activity coefficient (303.6 K): 2.08
activity coefficient (313.1 K): 2.09
activity coefficient (323.2 K): 2.1
activity coefficient (333.2 K): 2.11
activity coefficient (343 K): 2.12
activity coefficient (353.3 K): 2.13
